Measured values from patent publication US11028090B2 (Dong Wha Pharm. Co., Ltd., priority 2017, dated 2021).
pIC50: −log10 of the molar value. Read-outs that look alike come from different tables or passages of the source.

Columns and labels:
[1] = test system: acute myelogenous leukemia cells (MV-4-11 cells); assay: Cytotoxicity to acute myelogenous leukemia cells (MV-4-11 cells), CCK-8; settings: Homo sapiens, MV4-11, 72 h
[2] = target: BRD4 (BD1+BD2) bromodomain (Homo sapiens (Human), UniProt O60885); assay: BRD4 binding inhibition (AlphaScreen, GST-BRD4 vs tetraacetylated histone H4 peptide)
Method in brief: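 GST-BRD4 (BD1+BD2) and biotinylated tetraacetyl-histone H4 peptide, each at 100 nM in HEPES pH 7.4 buffer with BSA and DTT, were combined with compound. Glutathione acceptor and streptavidin donor beads were added, then incubated 30 min at room temperature in the dark. Read-out was AlphaScreen signal.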

[3] = read-out: IC50, cytotoxicity against acute myelogenous leukemia cells
[4] = read-out: MV-4-11 Cytotoxicity IC50
[5] = GST-BRD4 (BD1+BD2) / biotinylated acetyl-histone H4 (Lys5,8,12,16) peptide, read-out: IC50, BRD4 binding inhibition
[6] = GST-BRD4 (BD1+BD2) vs biotinylated acetyl-histone H4 peptide, AlphaScreen, read-out: BRD4 IC50

Row | Compound | pIC50 [1, 3] | pIC50 [1, 4] | pIC50 [2, 5] | pIC50 [2, 6]
1 | COc1cc2nc(NCCCCNC(=O)Cc3ccco3)c3nnc(C)n3c2cc1OC [Example 85, N-[4-(7,8-dimethoxy-1-methyl-[1,2,4]triazolo[4,3-a]quinoxaline-4-ylamino)-butyl]-2-furan-2-yl-acetamide] | ≥ 6.70 | 7.30 | ≥ 7.30 | 7.57
2 | COc1cc2nc(NCCCCNC(=O)Cc3ccccc3)c3nnc(C)n3c2cc1OC [Example 86, N-[4-(7,8-dimethoxy-1-methyl-[1,2,4]triazolo[4,3-a]quinoxaline-4-ylamino)-butyl]-2-phenyl-acetamide] | ≥ 6.70 | 7.22 | ≥ 7.30 | 7.77
3 | COc1cc2nc(NCCCCNC(=O)c3ccccc3)c3nnc(C)n3c2cc1OC [Example 95, N-[4-(7,8-dimethoxy-1-methyl-[1,2,4]triazolo[4,3-a]quinoxaline-4-ylamino)-butyl]-benzamide] |  | 6.23 | ≥ 7.30 | 7.44
4 | COc1cc2nc(NCCCCNC(=O)c3ccc(C(C)(C)C)cc3)c3nnc(C)n3c2cc1OC [Example 96, 4-tert-butyl-N-[4-(7,8-dimethoxy-1-methyl-[1,2,4]triazolo[4,3-a]quinoxaline-4-ylamino)-butyl]-benzamide] |  | 6.20 | ≥ 7.30 | 
5 | COc1cc2nc(NCCCCNC(=O)c3ccccc3OC)c3nnc(C)n3c2cc1OC [Example 97, N-[4-(7,8-dimethoxy-1-methyl-[1,2,4]triazolo[4,3-a]quinoxaline-4-ylamino)-butyl]-2-methoxy-benzamide] |  | 6.29 | ≥ 7.30 | 
6 | COc1cc2nc(NCCCCNC(=O)c3ccc(F)cc3)c3nnc(C)n3c2cc1OC [Example 98, N-[4-(7,8-dimethoxy-1-methyl-[1,2,4]triazolo[4,3-a]quinoxaline-4-ylamino)-butyl]-4-fluoro-benzamide] |  | 6.08 | ≥ 7.30 | 7.33
7 | COc1cc2nc(NCCCCNC(=O)c3ccccn3)c3nnc(C)n3c2cc1OC [Example 105, pyridine-2-carboxylic acid-[4-(7,8-dimethoxy-1-methyl-[1,2,4]triazolo[4,3-a]quinoxaline-4-ylamino)-butyl]-amide] |  | 6.19 |  | 7.22
8 | COc1cc2nc(NCCCCNC(=O)c3ccccc3F)c3nnc(C)n3c2cc1OC [Example 106, N-[4-(7,8-dimethoxy-1-methyl-[1,2,4]triazolo[4,3-a]quinoxaline-4-ylamino)-butyl]-2-fluoro-benzamide] |  | 6.51 | ≥ 7.30 | 7.55
9 | COc1cccc2c1nc(NCCCCNC(=O)OC(C)(C)C)c1nnc(C)n12 [Example 117, [4-(6-methoxy-1-methyl-[1,2,4]triazolo[4,3-a]quinoxaline-4-ylamino)-butyl]-carbamic acid-tert-butylester] |  | 6.43 |  | 7.19
10 | COc1ccc2nc(NCCCCNC(=O)c3ccccc3Cl)c3nnc(C)n3c2c1 [Example 128, 2-chloro-N-[4-(8-methoxy-1-methyl-[1,2,4]triazolo[4,3-a]quinoxaline-4-ylamino)-butyl]-benzamide] | ≥ 6.70 | 6.77 | ≥ 7.30 | 7.48
11 | COc1c(C)ccc2c1nc(NCCCCNC(=O)[C@@H](O)C(C)C)c1nnc(C)n12 [Example 137, 2-(S)-hydroxy-N-[4-(6-methoxy-1,7-dimethyl-[1,2,4]triazolo[4,3-a]quinoxaline-4-ylamino)-butyl]-3-methyl-butyramide] |  | 6.43 | ≥ 8.00 | 8.22
12 | COc1c(C)ccc2c1nc(NCCCCNC(=O)c1ccccc1)c1nnc(C)n12 [Example 138, N-[4-(6-methoxy-1,7-dimethyl-[1,2,4]triazolo[4,3-a]quinoxaline-4-ylamino)-butyl]-benzamide] |  | 6.07 |  | 7.29
13 | COc1c(C)ccc2c1nc(NCCCCNC(=O)c1ccccc1Cl)c1nnc(C)n12 [Example 140, 2-chloro-N-[4-(6-methoxy-1,7-dimethyl-[1,2,4]triazolo[4,3-a]quinoxaline-4-ylamino)-butyl]-benzamide] |  | 6.17 |  | 7.28
14 | COc1cc2c(cc1C)nc(NCCCCNC(=O)OCC(C)C)c1nnc(C)n12 [Example 150, [4-(8-methoxy-1,7-dimethyl-[1,2,4]triazolo[4,3-a]quinoxaline-4-ylamino)-butyl]-carbamic acid isobutylester] |  | 6.34 | ≥ 7.30 | 7.32
15 | COc1cc2c(cc1C)nc(NCCCCNC(=O)CC(C)C)c1nnc(C)n12 [Example 151, N-[4-(8-methoxy-1,7-dimethyl-[1,2,4]triazolo[4,3-a]quinoxaline-4-ylamino)-butyl]-3-methyl-butyramide] |  | 6.42 |  | 7.28
16 | COc1cc2c(cc1C)nc(NCCCCNC(=O)[C@@H](O)C(C)C)c1nnc(C)n12 [Example 153, 2-(S)-hydroxy-N-[4-(8-methoxy-1,7-dimethyl-[1,2,4]triazolo[4,3-a]quinoxaline-4-ylamino)-butyl]-3-methyl-butyramide] |  | 6.34 | ≥ 7.30 | 7.80
17 | COc1cc(C)c2nc(NCCCCNC(=O)OC(C)(C)C)c3nnc(C)n3c2c1 [Example 158, [4-(8-methoxy-1,6-dimethyl-[1,2,4]triazolo[4,3-a]quinoxaline-4-ylamino)-butyl]-carbamic acid-tert-butylester] |  | 6.21 | ≥ 7.30 | 7.74
18 | COc1cc(C)c2nc(NCCCCN)c3nnc(C)n3c2c1 [Example 159, N^1-(8-methoxy-1,6-dimethyl-[1,2,4]triazolo[4,3-a]quinoxaline-4-yl)-butane-1,4-diamine ditrifluoroacetic acid] |  | 6.28 | ≥ 7.30 | 7.62
19 | COc1cc(C)c2nc(NCCCCNC(=O)CC(C)C)c3nnc(C)n3c2c1 [Example 160, N-[4-(8-methoxy-1,6-dimethyl-[1,2,4]triazolo[4,3-a]quinoxaline-4-ylamino)-butyl]-3-methyl-butyramide] | ≥ 6.70 | 7.15 | ≥ 7.30 | 7.55
20 | COCCOc1cc2nc(NCCCCNC(=O)OC(C)(C)C)c3nnc(C)n3c2cc1OCCOC [Example 162, {4-[7,8-bis-(2-methoxy-ethoxy)-1-methyl-[1,2,4]triazolo[4,3-a]quinoxaline-4-ylamino]-butyl}-carbamic acid-tert-butylester] |  | 6.19 | ≥ 7.30 | 7.62
21 | COCCOc1cc2nc(NCCCCNC(=O)C(C)(C)C)c3nnc(C)n3c2cc1OCCOC [Example 164, N-{4-[7,8-bis-(2-methoxy-ethoxy)-1-methyl-[1,2,4]triazolo[4,3-a]quinoxaline-4-ylamino]-butyl}-2,2-dimethyl-propionamide] |  | 6.24 | ≥ 7.30 | 7.43
22 | COCCOc1cc2nc(NCCCCNC(=O)NC(C)(C)C)c3nnc(C)n3c2cc1OCCOC [Example 169, 1-{4-[7,8-bis-(2-methoxy-ethoxy)-1-methyl-[1,2,4]triazolo[4,3-a]quinoxaline-4-ylamino]-butyl}-3-tert-butyl-urea] |  | 6.07 | ≥ 7.30 | 7.39
23 | COCCOc1cc2nc(NCCCCNC(=O)c3ccccc3)c3nnc(C)n3c2cc1OCCOC [Example 170, N-{4-[7,8-bis-(2-methoxy-ethoxy)-1-methyl-[1,2,4]triazolo[4,3-a]quinoxaline-4-ylamino]-butyl}-benzamide] |  | 6.28 | ≥ 7.30 | 7.42
24 | COCCOc1cc2nc(NCCCCNC(=O)c3ccc(C)nc3Cl)c3nnc(C)n3c2cc1OCCOC [Example 172, N-{4-[7,8-bis-(2-methoxy-ethoxy)-1-methyl-[1,2,4]triazolo[4,3-a]quinoxaline-4-ylamino]-butyl}-2-chloro-6-methyl-nicotinamide] |  | 6.55 | ≥ 7.30 | 7.40
25 | CCOc1cc2nc(NCCCCNC(=O)OC(C)(C)C)c3nnc(C)n3c2cc1OCC [Example 173] |  | 6.44 | ≥ 8.00 | 8.40
26 | CCOc1cc2nc(NCCCCNC(=O)OC(C)C)c3nnc(C)n3c2cc1OCC [Example 175, [4-(7,8-diethoxy-1-methyl-[1,2,4]triazolo[4,3-a]quinoxaline-4-ylamino)-butyl]-carbamic acid isopropylester] |  | 6.59 | ≥ 7.30 | 7.59
27 | CCOc1cc2nc(NCCCCNC(=O)OCC(C)C)c3nnc(C)n3c2cc1OCC [Example 176, [4-(7,8-diethoxy-1-methyl-[1,2,4]triazolo[4,3-a]quinoxaline-4-ylamino)-butyl]-carbamic acid isobutylester] | ≥ 6.70 | 6.96 | ≥ 8.00 | 8.70
28 | CCOc1cc2nc(NCCCCNC(=O)CC(C)C)c3nnc(C)n3c2cc1OCC [Example 177] | ≥ 6.70 | 6.96 | ≥ 7.30 | 7.30
29 | Cc1nnc2c(NCCCCNC(=O)OC(C)(C)C)nc3cc4c(cc3n12)OCCO4 [Example 178, [4-(1-methyl-8,9-dihydro-7,10-dioxa-2,3,5,11b-tetraaza-cyclopenta[a]anthracene-4-ylamino)-butyl]-carbamic acid-tert-butylester] |  | 6.36 | ≥ 7.30 | 7.77
30 | Cc1nnc2c(NCCCCN)nc3cc4c(cc3n12)OCCO4 [Example 179, N^1-(1-methyl-8,9-dihydro-7,10-dioxa-2,3,5,11b-tetraaza-cyclopenta[a]anthracene-4-yl)-butane-1,4-diamine ditrifluoroacetic acid] |  | 6.19 | ≥ 7.30 | 7.46
